Reference: US20190022152A1, “MICROBIOME RESPONSE TO AGENTS” (Yeda Research and Development Co., Ltd., priority 2014, published 2019)
Peptide text beside a SMILES is read from it.

Experiments:
[1] = test system: fecal matter from naïve mice; assay: In vitro anaerobic culturing of fecal matter with saccharin; assay type: cell-based; details: In vitro, PBS vs. SAC
Experimental: pooled fecal matter from naïve adult WT C57Bl/6 male mice was resuspended in 5 ml PBS in an anaerobic chamber (Coy Laboratory Products, 75% N2, 20% CO2, 5% H2), vortexed for 3 minutes and allowed to settle by gravity for 2 minutes. […] were added to a tube containing Chopped Meat Carbohydrate Broth, PR II (BD) and […] of a 5 mgml-1 saccharin solution or an equal volume of PBS. Every 3 days, 500 ml of culture were diluted to fresh medium containing saccharin or PBS. After 9 days, cultures were used for inoculation of germ-free mice.
Frozen fecal samples were processed for DNA isolation using the MoBio PowerSoil kit according to the manufacturer's instructions. […] the variable region 2 (V2) of the 16S rRNA gene were generated by using the following barcoded primers: Fwd 5′-[…]-3′ (SEQ ID NO: 3), Rev 5′-[…]-3′ (SEQ ID NO: 4). […] Reads were then processed using the QIIME (Quantitative Insights Into Microbial Ecology) analysis pipeline as described, version 1.8. Paired-end joined sequences were grouped into operational taxonomic units (OTUs) using the UCLUST algorithm and the greengenes database. Sequences with distance-based similarity of 97% or greater over median sequence length of 353 bp were assigned to the same OTU. Samples were grouped according to the treatment. […] P-values were FDR corrected for multiple hypothesis testing.

[2] = test system: mice; assay: Oral glucose tolerance test in mice drinking non-caloric artificial sweeteners (NAS); assay type: in vivo; details: lean C57Bl/6 mice, normal chow, commercial NAS formulations in drinking water, week 11; p<0.001 vs water, glucose, sucrose
Description: C57Bl/6 WT adult male mice were randomly assigned (without blinding) to treatment groups and were given commercial artificial sweeteners (saccharin-, sucralose- or aspartame-based) or pure saccharin (Sigma Aldrich) in drinking water and fed a high-fat (HFD D12492, 60% Kcal from fat, Research Diets) or standard polysaccharide normal chow (NC) diet (Harlan-Teklad). Compared groups were always fed from the same batch of diet. For antibiotic treatment, mice were given a combination of ciprofloxacin (0.2 gl^−1) and metronidazole ([…]) or vancomycin (0.5 gl^−1) in their drinking water. All antibiotics were obtained from Sigma Aldrich. Adult male outbred Swiss-Webster mice (a widely used mouse strain in germ-free experiments) served as recipients for fecal transplants and were housed in sterile isolators (Park Biosciences). For fecal transplantation experiments, 200 mg of stool (from mouse pellets or human swabs) was resuspended in 5 ml of PBS under anaerobic conditions, vortexed for 3 minutes and allowed to settle by gravity for 2 minutes. Recipient mice were gavaged with 200 μl of the supernatant and maintained on standard NC diet and water throughout the experiment.
The following commercially available NAS were dissolved in mice drinking water to obtain a 10% solution: Sucrazit (5% saccharin, 95% glucose), Sucralite (5% Sucralose), Sweet'n Low Gold (4% Aspartame). 10% glucose (J.T. Baker) and 10% sucrose (Sigma Aldrich) solutions were used for controls. […] For experiments conducted with pure saccharin (Sigma Aldrich) a 0.1 mgml^−1 solution was used in order to meet with FDA defined ADI for saccharin in humans (5 mgkg^−1), according to the following calculation:
Mice were fasted for 6 hours during the light phase, with free access to water. In all groups of mice where the drinking regime was other than water, it was substituted for water for the period of the fasting and glucose or insulin tolerance test. Blood from the tail vein was used to measure glucose levels using a glucometer (Bayer) immediately before and 15, 30, 60, 90 and 120 minutes after oral feeding with 40 mg glucose (J.T. Baker) or intra-peritoneal injection with 0.1 Ukg^−1 Insulin (Biological Industries). Plasma fasting insulin levels were measured in sera collected immediately before the start of GTT using ELISA (Ultra Sensitive Mouse Insulin ELISA Kit, Crystal Chem).

[3] = literature values; cited from earlier work

For `O=C1NS(=O)(=O)c2ccccc21` [SAC], the “Log_fold change: 2-Oxocarboxylic acid metabolism” value [1] was 0.01, the “Log_fold change: ABC transporters” value [1] was −0.03 and the “Log_fold change: Alanine, aspartate and glutamate metabolism” value [1] was −0.01. For the same molecule, the “Log_fold change: Amino sugar and nucleotide sugar metabolism” value [1] was 0.01, the “Log_fold change: Aminoacyl-tRNA biosynthesis” value [1] was −0.02 and the “Log_fold change: Aminobenzoate degradation” value [1] was −0.01. The “Log_fold change: Arginine and proline metabolism” value [1] was −0.01, the “Log_fold change: Ascorbate and aldarate metabolism” value [1] was 0.03 and the “Log_fold change: Atrazine degradation” value [1] was −0.05. The “Log_fold change: Bacterial chemotaxis” value [1] was 0.03, the “Log_fold change: Bacterial secretion system” value [1] was 0.01 and the “Log_fold change: Base excision repair” value [1] was 0.00. For the same molecule, the “Log_fold change: Benzoate degradation” value [1] was −0.01, the “Log_fold change: Biosynthesis of amino acids” value [1] was 0.00 and the “Log_fold change: Biosynthesis of siderophore group nonribosomal peptides” value [1] was −0.02. The “Log_fold change: Biosynthesis of unsaturated fatty acids” value [1] was −0.03, the “Log_fold change: Biotin metabolism” value [1] was −0.01 and the “Log_fold change: Bisphenol degradation” value [1] was 0.00. The “Log_fold change: Butanoate metabolism” value [1] was −0.01, the “Log_fold change: CS-Branched dibasic acid metabolism” value [1] was 0.01 and the “Log_fold change: Caprolactam degradation” value [1] was −0.02. The “Log_fold change: Carbon fixation in photosynthetic organisms” value [1] was 0.00, the “Log_fold change: Carbon fixation pathways in prokaryotes” value [1] was 0.00 and the “Log_fold change: Carbon metabolism” value [1] was −0.01. The “Log_fold change: Cell cycle-Caulobacter” value [1] was 0.00, the “Log_fold change: Chloroalkane and chloroalkene degradation” value [1] was −0.03 and the “Log_fold change: Citrate cycle (TCA cycle)” value [1] was 0.00. For the same molecule, the “Log_fold change: Cyanoamino acid metabolism” value [1] was 0.02, the “Log_fold change: Cysteine and methionine metabolism” value [1] was 0.01 and the “Log_fold change: D-Alanine metabolism” value [1] was −0.04. The “Log_fold change: D-Arginine and D-ornithine metabolism” value [1] was 0.24, the “Log_fold change: D-Glutamine and D-glutamate metabolism” value [1] was −0.03 and the “Log_fold change: DDT degradation” value [1] was −0.35. The “Log_fold change: DNA replication” value [1] was 0.00, the “Log_fold change: Dioxin degradation” value [1] was −0.12 and the “Log_fold change: Drug metabolism-other enzymes” value [1] was 0.00. The “Log_fold change: Ether lipid metabolism” value [1] was −0.02, the “Log_fold change: Fatty acid biosynthesis” value [1] was −0.01 and the “Log_fold change: Fatty acid degradation” value [1] was −0.01. For the same molecule, the “Log_fold change: Fatty acid metabolism” value [1] was 0.00, the “Log_fold change: Flagellar assembly” value [1] was 0.07 and the “Log_fold change: Folate biosynthesis” value [1] was 0.00. The “Log_fold change: Fructose and mannose metabolism” value [1] was 0.00, the “Log_fold change: Galactose metabolism” value [1] was 0.02 and the “Log_fold change: Geraniol degradation” value [1] was 0.00. For the same molecule, the “Log_fold change: Glutathione metabolism” value [1] was −0.03, the “Log_fold change: Glycerolipid metabolism” value [1] was 0.00 and the “Log_fold change: Glycerophospholipid metabolism” value [1] was −0.02. The “Log_fold change: Glycine, serine and threonine metabolism” value [1] was 0.00, the “Log_fold change: Glycolysis/Gluconeogenesis” value [1] was −0.02 and the “Log_fold change: Glycosaminoglycan degradation” value [1] was 0.03. For the same molecule, the “Log_fold change: Glycosphingolipid biosynthesis-globoseries” value [1] was 0.05, the “Log_fold change: Glyoxylate and dicarboxylate metabolism” value [1] was 0.01 and the “Log_fold change: Histidine metabolism” value [1] was 0.01. The “Log_fold change: Homologous recombination” value [1] was −0.01, the “Log_fold change: Inositol phosphate metabolism” value [1] was 0.02 and the “Log_fold change: Limonene and pinene degradation” value [1] was −0.01. The “Log_fold change: Lipoicacid metabolism” value [1] was −0.01, the “Log_fold change: Lipopolysaccharide biosynthesis” value [1] was 0.01 and the “Log_fold change: Lysine biosynthesis” value [1] was 0.00. The “Log_fold change: Lysine degradation” value [1] was −0.03, the “Log_fold change: Methane metabolism” value [1] was −0.01 and the “Log_fold change: Mismatch repair” value [1] was −0.01. For the same molecule, the “Log_fold change: Naphthalene degradation” value [1] was −0.02, the “Log_fold change: Nicotinate and nicotinamide metabolism” value [1] was −0.02 and the “Log_fold change: Nitrogen metabolism” value [1] was 0.00. For the same molecule, the “Log_fold change: Nitrotoluene degradation” value [1] was −0.05, the “Log_fold change: Novobiocin biosynthesis” value [1] was 0.02 and the “Log_fold change: Nucleotide excision repair” value [1] was 0.00. For the same molecule, the “Log_fold change: One carbon pool by folate” value [1] was 0.01, the “Log_fold change: Other glycan degradation” value [1] was 0.03 and the “Log_fold change: Oxidative phosphorylation” value [1] was −0.02. For the same molecule, the “Log_fold change: Pantothenate and CoA biosynthesis” value [1] was 0.00, the “Log_fold change: Penicillin and cephalosporin biosynthesis” value [1] was −0.02 and the “Log_fold change: Pentose and glucuronate interconversions” value [1] was 0.02. For the same molecule, the “Log_fold change: Pentose phosphate pathway” value [1] was 0.00, the “Log_fold change: Peptidoglycan biosynthesis” value [1] was −0.02 and the “Log_fold change: Phenylalanine metabolism” value [1] was 0.01. The “Log_fold change: Phenylalanine, tyrosine and tryptophan biosynthesis” value [1] was 0.01, the “Log_fold change: Phosphonate and phosphinate metabolism” value [1] was −0.01 and the “Log_fold change: Phosphotransferase system (PTS)” value [1] was −0.17. The “Log_fold change: Porphyrin and chlorophyll metabolism” value [1] was 0.01, the “Log_fold change: Propanoate metabolism” value [1] was −0.01 and the “Log_fold change: Protein export” value [1] was −0.01. The “Log_fold change: Proximal tubule bicarbonate reclamation” value [1] was −0.02, the “Log_fold change: Purine metabolism” value [1] was −0.01 and the “Log_fold change: Pyrimidine metabolism” value [1] was −0.01. The “Log_fold change: Pyruvate metabolism” value [1] was 0.00, the “Log_fold change: RNA degradation” value [1] was −0.01 and the “Log_fold change: Riboflavin metabolism” value [1] was 0.01. The “Log_fold change: Ribosome” value [1] was −0.01, the “Log_fold change: Selenocompound metabolism” value [1] was −0.01 and the “Log_fold change: Sphingolipid metabolism” value [1] was 0.04. For the same molecule, the “Log_fold change: Starch and sucrose metabolism” value [1] was 0.01, the “Log_fold change: Streptomycin biosynthesis” value [1] was 0.00 and the “Log_fold change: Styrene degradation” value [1] was 0.06. For the same molecule, the “Log_fold change: Sulfur metabolism” value [1] was −0.01, the “Log_fold change: Sulfur relay system” value [1] was −0.03 and the “Log_fold change: Synthesis and degradation of ketone bodies” value [1] was −0.09. For the same molecule, the “Log_fold change: Taurine and hypotaurine metabolism” value [1] was 0.00, the “Log_fold change: Terpenoid backbone biosynthesis” value [1] was −0.01 and the “Log_fold change: Tetracycline biosynthesis” value [1] was −0.15. The “Log_fold change: Thiamine metabolism” value [1] was −0.02, the “Log_fold change: Tropane, piperidine and pyridine alkaloid biosynthesis” value [1] was 0.02 and the “Log_fold change: Tryptophan metabolism” value [1] was −0.04. The “Log_fold change: Two−component system” value [1] was 0.01, the “Log_fold change: Tyrosine metabolism” value [1] was −0.01 and the “Log_fold change: Ubiquinone and other terpenoid-quinone biosynthesis” value [1] was −0.03. For the same molecule, the “Log_fold change: Valine, leucine and isoleucine biosynthesis” value [1] was 0.01, the “Log_fold change: Valine, leucine and isoleucine degradation” value [1] was 0.00 and the “Log_fold change: Vibriocholerae pathogenic cycle” value [1] was 0.00. For the same molecule, the “Log_fold change: Vitamin B6 metabolism” value [1] was 0.00, the “Log_fold change: Xylene degradation” value [1] was −0.12 and the “Log_fold change: beta-Alanine metabolism” value [1] was −0.01. The “Log_fold change: beta-Lactam resistance” value [1] was 0.01.

In the case of `COC(=O)[C@H](Cc1ccccc1)NC(=O)[C@@H](N)CC(=O)O` [aspartame] (H-Asp-Phe-OMe), the “glucose tolerance (OGTT)” value [2] is given as “marked glucose intolerance” and the reported toxic dose [3] is given as 4 gkg^−1.

In the case of `OC[C@H]1O[C@H](O[C@]2(CCl)O[C@H](CCl)[C@@H](O)[C@@H]2O)[C@H](O)[C@@H](O)[C@H]1Cl` [sucralose], the “glucose tolerance (OGTT)” value [2] is given as “marked glucose intolerance” and the reported toxic dose [3] is given as 16 gkg^−1.
